The subject of one assay is Z-138 cells. Kind of assay: Z-138 long term proliferation assay (Cell Titer Glo). The class given is cell-based. As to conditions: Homo sapiens, 192 h; Z-138 cells, cell viability, day 8; read-out: PRMT5 Z138 GI50 Day 8 μM. Here is the method: A compound source plate was prepared by performing ten-point 3-fold dilution in DMSO, such that the final top concentration of the compound was 10 μM, and DMSO was 0.3%. The total volume of compounds added was 20 μL. The cells were incubated for 96 h at 37° C., 5% CO2. […] The cells were re-treated with the compounds and incubated for an additional four days. Cell viability was measured on both day 4 and day 8, by adding 25 μL of Cell Titer Glo reagent to an equal volume of cell suspension. Luminescence was read on a PerkinElmer Victor3 multiplate reader. The concentration of compound inhibiting cell viability by 50% was determined using a 4-parameter, variable slope fit of the normalized dose response curves.
In general terms: Cellular ATP, detected with luciferase, serves as a proxy for viable cell number.

The next assay addresses T1, PRMT5/MEP50 (Homo sapiens, UniProt O14744).
T1 construct: Full-length human PRMT5 (NP_006100)
The experiment in a line: PRMT5/MEP50 enzyme assay on peptide substrates (3H-SAM Flashplate). The class given is biochemical. As to conditions: PRMT5/MEP50 10 nM, H4 1-15aa peptide 100 nM, 3H-SAM 1 μM. An excerpt: General materials like S-adenocylmethionine (SAM), S-adenosylhomocysteine (SAH), Tris-HCl, DTT, […] (BSA) and Tween-20 were purchased from Sigma-Aldrich. 3H-SAM and 384-well streptavidin Flashplates were purchased from Perkin Elmer. Substrates that were used were Peptide representative of human Histone 4 residues 1-15 which was purchased from Rockland antibodies and assays.
PRMT5/MEP50 Enzyme assay on Peptide Substrates.
The assays were all performed in a buffer consisting of 50 mMTris-HCl, pH 8, 1 mM DTT, 0.01% BSA, 0.01% Tween-20, prepared on the day of use. Test compounds were diluted 3-fold in assay buffer (final DMSO concentration of 1%) and added into a 384-well OptiPlate (PerkinElmer, #6007290). A cocktail (10 μL) of PRMT5/MEP50 enzyme and the peptide was added to the wells. The compounds were allowed to incubate with PRMT5/MEP50 for 30 min at room temperature, then 5 μL of ^3H-SAM was added to initiate the reaction. The final concentrations of the components were as follows: PRMT5/MEP50-10 nM, H4, 1-15aa peptide-100 nM, ^3H-SAM-1 μM. The assays were stopped by the addition of 1 mM SAH. 25 μL of the reaction from the 384-well OptiPlate was then transferred to a 384-well Flashplate and the biotinylated peptides were allowed to bind to the streptavidin surface for at least 1 h, before being washed twice with 50 mMTris-HCl, pH 8, 0.1% Tween-20. The plates were then read in a PerkinElmer Topcount plate reader to measure the quantity of ^3H-labeled peptide bound to the Flashplate surface measured as disintegrations per minute (dpm), also referred to as counts per minute (cpm).
The IC50 values were calculated using a 4-parameter variable slope fit algorithm (cpm—counts per minute, cmpd—signal in assay well, and cpmmax and cpmmin mare the respective minimum and maximum signal controls).

Molecules are shown by their SMILES.

T1 sequence (O14744 whole entry): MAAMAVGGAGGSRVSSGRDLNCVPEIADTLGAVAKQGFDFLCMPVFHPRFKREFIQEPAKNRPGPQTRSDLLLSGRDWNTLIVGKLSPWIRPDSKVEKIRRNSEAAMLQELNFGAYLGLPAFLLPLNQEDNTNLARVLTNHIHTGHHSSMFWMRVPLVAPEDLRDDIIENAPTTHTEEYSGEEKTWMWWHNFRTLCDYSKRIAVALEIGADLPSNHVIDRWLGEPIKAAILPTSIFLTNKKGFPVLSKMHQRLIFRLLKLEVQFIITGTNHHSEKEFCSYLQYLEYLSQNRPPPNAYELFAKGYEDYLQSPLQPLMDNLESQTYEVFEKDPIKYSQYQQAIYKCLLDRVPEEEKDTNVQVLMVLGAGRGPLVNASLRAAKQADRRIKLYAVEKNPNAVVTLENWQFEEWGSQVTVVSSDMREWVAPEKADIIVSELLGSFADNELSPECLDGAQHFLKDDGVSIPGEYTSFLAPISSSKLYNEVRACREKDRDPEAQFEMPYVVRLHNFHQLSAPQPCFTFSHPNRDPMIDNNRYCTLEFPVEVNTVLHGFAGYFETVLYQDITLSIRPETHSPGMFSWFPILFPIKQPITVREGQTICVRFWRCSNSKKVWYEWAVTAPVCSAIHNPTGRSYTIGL
T1 sequence (Q9BQA1 whole entry partner): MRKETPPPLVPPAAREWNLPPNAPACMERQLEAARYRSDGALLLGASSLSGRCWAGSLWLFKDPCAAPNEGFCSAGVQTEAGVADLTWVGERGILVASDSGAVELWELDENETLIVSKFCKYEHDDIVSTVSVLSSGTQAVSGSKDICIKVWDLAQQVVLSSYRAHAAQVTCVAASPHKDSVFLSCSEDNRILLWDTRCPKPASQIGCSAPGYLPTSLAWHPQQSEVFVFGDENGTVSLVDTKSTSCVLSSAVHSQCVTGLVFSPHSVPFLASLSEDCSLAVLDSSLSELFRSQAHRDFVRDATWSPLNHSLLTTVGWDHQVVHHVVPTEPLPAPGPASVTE

By GI50 is commonly meant the concentration at which growth is held to half of that of the control. A word on the IC50: it is the concentration at which inhibition is half-maximal. A low value points to higher potency. Regarding `CC(=O)N1CCC(c2ccc3nc(C(=O)NCC(O)CNC4Cc5ccccc5C4)cn3c2)CC1` (centres unmarked) [Example 98, 6-(1-acetylpiperidin-4-yl)-N-(3-((2,3-dihydro-1H-inden-2-yl)amino)-2-hydroxypropyl)imidazo[1,2-a]pyridine-2-carboxamide], the 50% growth inhibitory concentration (GI50) in the assay on Z-138 cells was in the range of 0.01 to 1 µM. Also, the half-maximal inhibitory concentration (IC50) against PRMT5/MEP50 fell in the range of 0.01 to 1 µM.

On to `Cc1nc(-c2ccc3nc(C(=O)NC[C@H](O)[C@@H](O)CN4CCc5ccccc5C4)cn3c2)no1` [Example 78, N-((2S,3S)-4-(3,4-dihydroisoquinolin-2(1H)-yl)-2,3-dihydroxybutyl)-6-(5-methyl-1,2,4-oxadiazol-3-yl)imidazo[1,2-a]pyridine-2-carboxamide], for which the GI50 with Z-138 cells was 0.01 to 1 µM. In addition, on PRMT5/MEP50, the concentration for half-maximal inhibition (IC50) was in the range of 0.01 to 1 µM.

Take `N#Cc1ccc2nc(C(=O)NC[C@H](O)CN3CCc4ccccc4C3)cn2c1` [Example 123, (S)-6-cyano-N-(3-(3,4-dihydroisoquinolin-2(1H)-yl)-2-hydroxypropyl)imidazo[1,2-a]pyridine-2-carboxamide]: the 50% growth inhibitory concentration (GI50) in the assay on Z-138 cells was in the range of 0.01 to 1 µM. Also, the IC50 on PRMT5/MEP50 lay in the range of 0.01 to 1 µM.

In the case of `CC(C)n1cc(-c2ccc3nc(C(=O)NC[C@H](O)CN4CCc5ccccc5C4)cn3c2)nn1` [Example 37, (S)—N-(3-(3,4-dihydroisoquinolin-2(1H)-yl)-2-hydroxypropyl)-6-(1-isopropyl-1H-1,2,3-triazol-4-yl)imidazo[1,2-a]pyridine-2-carboxamide], the GI50 in the assay with Z-138 cells lay within 0.01 to 1 µM. Also, the half-inhibitory concentration (IC50) on PRMT5/MEP50 was 0.01 to 1 µM.

Take `O=C(NC[C@H](O)CN1CCc2ccccc2C1)c1cn2cc(-c3cnn(C4COC4)c3)ccc2n1` [Example 22, (S)—N-(3-(3,4-dihydroisoquinolin-2(1H)-yl)-2-hydroxypropyl)-6-(1-(oxetan-3-yl)-1H-pyrazol-4-yl)imidazo[1,2-a]pyridine-2-carboxamide]: the concentration for 50% growth inhibition (GI50) with Z-138 cells lay within 0.01 to 1 µM. In addition, the half-maximal inhibitory concentration (IC50) at PRMT5/MEP50 lay within 0.01 to 1 µM.

With `CC(=O)N1CCC(c2ccc3nc(C(=O)NC[C@H](O)CN4CCc5ccccc5C4)cn3c2)CC1` [Example 27, (S)-6-(1-acetylpiperidin-4-yl)-N-(3-(3,4-dihydroisoquinolin-2(1H)-yl)-2-hydroxypropyl)imidazo[1,2-a]pyridine-2-carboxamide], the GI50 in the assay on Z-138 cells is 0.01 to 1 µM. The molecule also had a 50% inhibitory concentration (IC50) against PRMT5/MEP50 of 0.01 to 1 µM.

On to `N#Cc1ccc(-c2cn3cc(C(=O)NC[C@H](O)CN4CCc5ccccc5C4)nc3cn2)cc1` [Example 74, (S)-6-(4-cyanophenyl)-N-(3-(3,4-dihydroisoquinolin-2(1H)-yl)-2-hydroxypropyl)imidazo[1,2-a]pyrazine-2-carboxamide], for which, in the assay with Z-138 cells, the GI50 lay within 0.01 to 1 µM. The IC50 on PRMT5/MEP50 is 0.01 to 1 µM.

Regarding `O=C(NC[C@H](O)CN1CCc2cc(F)ccc2C1)c1cn2nc(C(F)(F)F)ccc2n1` [Example 83, (S)—N-(3-(6-fluoro-3,4-dihydroisoquinolin-2(1H)-yl)-2-hydroxypropyl)-6-(trifluoromethyl)imidazo[1,2-b]pyridazine-2-carboxamide], the GI50 with Z-138 cells is greater than 5 µM. This molecule also returned an IC50 against PRMT5/MEP50 greater than 5 µM.

Regarding `NS(=O)(=O)c1ccc2nc(C(=O)NC[C@H](O)CN3CCc4ccccc4C3)cn2c1` [Example 40, (S)—N-(3-(3,4-dihydroisoquinolin-2(1H)-yl)-2-hydroxypropyl)-6-sulfamoylimidazo[1,2-a]pyridine-2-carboxamide], in the assay with Z-138 cells, the concentration for 50% growth inhibition (GI50) was greater than 5 µM. The IC50 against PRMT5/MEP50 fell in the range of 1 to 5 µM.

As to `O=C(NC[C@H](O)CN1CCc2ccccc2C1)c1nn2ccc(C(F)(F)F)nc2c1F` [Example 68, (S)—N-(3-(3,4-dihydroisoquinolin-2(1H)-yl)-2-hydroxypropyl)-3-fluoro-5-(trifluoromethyl)pyrazolo[1,5-a]pyrimidine-2-carboxamide], the 50% growth inhibitory concentration (GI50) in the assay with Z-138 cells was greater than 5 µM. For the same molecule, the IC50 at PRMT5/MEP50 is greater than 5 µM.

Take `O=C(NC[C@H](O)CN1CCc2ccccc2C1)c1cn2cc(-c3noc(C4CC4)n3)ccc2n1` [Example 25, (S)-6-(5-cyclopropyl-1,2,4-oxadiazol-3-yl)-N-(3-(3,4-dihydroisoquinolin-2(1H)-yl)-2-hydroxypropyl)imidazo[1,2-a]pyridine-2-carboxamide]: the GI50 in the assay on Z-138 cells lay in the range of 0.01 to 1 µM. At PRMT5/MEP50, this molecule had a concentration for half-maximal inhibition (IC50) of 0.01 to 1 µM.

Consider `O=C(NC[C@H](O)CN1CCc2ccccc2C1)c1cn2cc(-c3ccc(Cl)cn3)ccc2n1` [Example 33, (S)-6-(5-chloropyridin-2-yl)-N-(3-(3,4-dihydroisoquinolin-2(1H)-yl)-2-hydroxypropyl)imidazo[1,2-a]pyridine-2-carboxamide], for which the GI50 in the assay on Z-138 cells was in the range of 0.01 to 1 µM. In addition, the IC50 on PRMT5/MEP50 lay in the range of 0.01 to 1 µM.

Regarding `O=C(NC[C@H](O)CN1CCc2ccccc2C1)c1cn2cc(N3CC(F)(F)C3)ncc2n1` [Example 58, (S)-6-(3,3-difluoroazetidin-1-yl)-N-(3-(3,4-dihydroisoquinolin-2(1H)-yl)-2-hydroxypropyl)imidazo[1,2-a]pyrazine-2-carboxamide], the GI50 in the assay on Z-138 cells lay in the range of 1 to 5 µM. Moreover, the IC50 against PRMT5/MEP50 was 1 to 5 µM.

Take `Cn1cc(-c2ccc3nc(C(=O)NC[C@H](O)CN4CCc5ccccc5C4)cn3c2)ccc1=O` [Example 34, (S)—N-(3-(3,4-dihydroisoquinolin-2(1H)-yl)-2-hydroxypropyl)-6-(1-methyl-6-oxo-1,6-dihydropyridin-3-yl)imidazo[1,2-a]pyridine-2-carboxamide]: the 50% growth inhibitory concentration (GI50) in the assay with Z-138 cells fell in the range of 0.01 to 1 µM. This molecule yielded an IC50 at PRMT5/MEP50 of 0.01 to 1 µM.

Take `CC(=O)N1CCC(c2cn3cc(C(=O)NC[C@H](O)CN4CCc5ccccc5C4)nc3cn2)CC1` [Example 52, (S)-6-(1-acetylpiperidin-4-yl)-N-(3-(3,4-dihydroisoquinolin-2(1H)-yl)-2-hydroxypropyl)imidazo[1,2-a]pyrazine-2-carboxamide]: in the assay with Z-138 cells, the GI50 lay in the range of 0.01 to 1 µM. The molecule also yielded a half-inhibitory concentration (IC50) against PRMT5/MEP50 of 0.01 to 1 µM.

For `Cc1c(C(=O)NC[C@H](O)CN2CCc3ccccc3C2)nc2ccc(C(F)(F)F)nn12` [Example 54, (S)—N-(3-(3,4-dihydroisoquinolin-2(1H)-yl)-2-hydroxypropyl)-3-methyl-6-(trifluoromethyl)imidazo[1,2-b]pyridazine-2-carboxamide], the concentration for 50% growth inhibition (GI50) with Z-138 cells was 1 to 5 µM. On PRMT5/MEP50, the half-inhibitory concentration (IC50) lay within 1 to 5 µM.

Consider `Cn1ccc(-c2ccc3nc(C(=O)NCC(O)CNC4Cc5ccccc5C4)cn3c2)cc1=O` (centres unmarked) [Example 99, N-(3-((2,3-dihydro-1H-inden-2-yl)amino)-2-hydroxypropyl)-6-(1-methyl-2-oxo-1,2-dihydropyridin-4-yl)imidazo[1,2-a]pyridine-2-carboxamide], for which the GI50 in the assay with Z-138 cells lay in the range of 0.01 to 1 µM. The same molecule registered an IC50 on PRMT5/MEP50 of 0.01 to 1 µM.

Regarding `Cn1cc([C@@H]2CCc3nc(C(=O)NC[C@H](O)CN4CCc5ccccc5C4)cn3C2)cn1` [Example 120B, (S)—N—((S)-3-(3,4-dihydroisoquinolin-2(1H)-yl)-2-hydroxypropyl)-6-(1-methyl-1H-pyrazol-4-yl)-5,6,7,8-tetrahydroimidazo[1,2-a]pyridine-2-carboxamide], the GI50 in the assay on Z-138 cells lay in the range of 1 to 5 µM. On PRMT5/MEP50, this molecule returned an IC50 of 0.01 to 1 µM.

For the molecule `Cn1ccc(-c2ccc3nc(C(=O)NC[C@H](O)CN4CCc5ccccc5C4)cn3c2)cc1=O` [Example 35, (S)—N-(3-(3,4-dihydroisoquinolin-2(1H)-yl)-2-hydroxypropyl)-6-(1-methyl-2-oxo-1,2-dihydropyridin-4-yl)imidazo[1,2-a]pyridine-2-carboxamide], in the assay on Z-138 cells, the GI50 was 0.01 to 1 µM. Moreover, the IC50 on PRMT5/MEP50 lay in the range of 0.01 to 1 µM.

Consider `CN(C[C@H](O)CN1CCc2ccccc2C1)C(=O)c1cn2cc(-c3cnn(C)c3)ncc2n1` [Example 92, (R)—N-(3-(3,4-dihydroisoquinolin-2(1H)-yl)-2-hydroxypropyl)-N-methyl-6-(1-methyl-1H-pyrazol-4-yl)imidazo[1,2-a]pyrazine-2-carboxamide], for which the GI50 with Z-138 cells fell in the range of 1 to 5 µM. The molecule further showed a concentration for half-maximal inhibition (IC50) against PRMT5/MEP50 of 0.01 to 1 µM.

Consider `Cn1ccc(-c2ccn3nc(C(=O)NC[C@H](O)CN4CCc5ccccc5C4)cc3n2)cc1=O` [Example 63, (S)—N-(3-(3,4-dihydroisoquinolin-2(1H)-yl)-2-hydroxypropyl)-5-(1-methyl-2-oxo-1,2-dihydropyridin-4-yl)pyrazolo[1,5-a]pyrimidine-2-carboxamide], for which, in the assay with Z-138 cells, the GI50 was in the range of 1 to 5 µM. For the same molecule, on PRMT5/MEP50, the IC50 was 0.01 to 1 µM.

In the case of `CN1CCN(c2ccc3nc(C(=O)NC[C@H](O)CN4CCc5ccccc5C4)cn3c2)CC1` [Example 71, (S)—N-(3-(3,4-dihydroisoquinolin-2(1H)-yl)-2-hydroxypropyl)-6-(4-methylpiperazin-1-yl)imidazo[1,2-a]pyridine-2-carboxamide], the GI50 in the assay on Z-138 cells was in the range of 1 to 5 µM. The same molecule yielded an IC50 against PRMT5/MEP50 of 0.01 to 1 µM.

The values are drawn from US11459338B2, “Heterocyclic compounds as PRMT5 inhibitors” (JUBILANT EPISCRIBE LLC, priority 2018, dated 2022).
